In experiment [1] the target is cloned human P2Y1 receptors (Homo sapiens (Human), UniProt P47900). Kind of experiment: Binding Assay B: Scintillation Proximity Assay (SPA) for P2Y1 binding. Conditions: SPA, [33P] 2MeS-ADP displacement; read-out: P2Y1 Ki (nM) using binding assay B. The method, boiled down: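 Membranes with ~15 fmol receptor (1.7 μg total protein) incubated with 0.3 nM [^33P]-labelled radioligand for 1 h at room temperature to completion. After centrifugation and removal of aqueous phase, bound radioactivity read by scintillation proximity; inhibition of radioligand binding measured.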

Experiment [2] relates to human platelet rich plasma (PRP). Kind of experiment: ADP induced platelet aggregation assay. The settings on record: Homo sapiens, Platelet, read-out: PA IC50 (μM) @ 10 μM ADP, platelet aggregation induced by 10 μM ADP, human PRP.

Structures are written as SMILES. Where a name gives a salt, the structure may show the parent alone.

Sequence of cloned human P2Y1 receptors (P47900 whole entry): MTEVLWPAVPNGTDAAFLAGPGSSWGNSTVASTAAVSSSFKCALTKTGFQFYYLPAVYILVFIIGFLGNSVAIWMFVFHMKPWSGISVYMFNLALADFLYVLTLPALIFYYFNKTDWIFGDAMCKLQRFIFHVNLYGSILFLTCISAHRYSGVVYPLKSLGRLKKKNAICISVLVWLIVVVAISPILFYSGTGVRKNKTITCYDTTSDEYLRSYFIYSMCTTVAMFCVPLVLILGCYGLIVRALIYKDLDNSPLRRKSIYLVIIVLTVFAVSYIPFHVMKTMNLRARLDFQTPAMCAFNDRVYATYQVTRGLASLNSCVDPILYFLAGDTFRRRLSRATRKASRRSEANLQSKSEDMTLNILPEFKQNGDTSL

`CN(C)S(=O)(=O)c1ccc(O)c2c1C1(CCN(CC(C)(C)C)CC1)CN2c1ccccc1NC(=O)Nc1ccc(OC(F)(F)F)cc1` [Example 89, 7-Hydroxy-N,N-dimethyl-1′-neopentyl-1-(2-(3-(4-(trifluoromethoxy)phenyl)ureido)phenyl)spiro[indoline-3,4′-piperidine]-4-sulfonamide]: the Ki in experiment [1] came to 5.3 nM. In addition, the IC50 in experiment [2] came out at 0.4 µM.

Take `CC(C)CN1CCC2(CC1)CN(c1ccccc1NC(=O)Nc1nc3ccc(Cl)cc3s1)c1c(O)ccc(Cl)c12` [Example 65, 1-(2-(4-Chloro-7-hydroxy-1′-isobutylspiro[indoline-3,4′-piperidine]-1-yl)phenyl)-3-(6-chlorobenzo[d]thiazol-2-yl)urea]: the Ki in experiment [1] was found to be 7.8 nM. In addition, in experiment [2], the IC50 is 0.4 µM.

For the compound `CC(C)(C)CN1CCC2(CC1)CN(c1ccccc1NC(=O)Nc1nc3ccc(Cl)cc3s1)c1c(O)cc(F)c(F)c12` [Example 96, l-(6-Chlorobenzo[d]thiazol-2-yl)-3-(2-(4,5-difluoro-7-hydroxy-1′-neopentylspiro[indoline-3,4′-piperidine]-1-yl)phenyl)urea], the Ki in experiment [1] was 25.8 nM. Besides, the IC50 in experiment [2] stood at 0.3 µM.

`CC(C)(C)CN1CCC2(CC1)CN(c1ccccc1NC(=O)Nc1ccc(C3CCCN3CC(C)(C)C)cc1)c1c(O)ccc(Cl)c12` (stereo not drawn) [Example 58, 1-(2-(4-Chloro-7-hydroxy-1′-neopentylspiro[indoline-3,4′-piperidine]-1-yl)phenyl)-3-(4-(1-neopentylpyrrolidin-2-yl)phenyl)urea]: the Ki in experiment [1] was found to be 12.4 nM. Moreover, the IC50 in experiment [2] was 0.2 µM.

Take `CC(C)(C)CN1CCC2(CC1)CN(c1ccccc1NC(=O)Nc1ccc(OC(F)(F)F)cc1)c1c(O)ccc(C#N)c12` [Example 8, 1-(2-(4-Cyano-7-hydroxy-1′-neopentylspiro[indoline-3,4′-piperidine]-1-yl)phenyl)-3-(4-(trifluoromethoxy)phenyl)urea]: the Ki in experiment [1] turned out to be 5.7 nM. In addition, in experiment [2], the IC50 amounted to 1.1 µM.

With `COc1nsc(NC(=O)Nc2ccccc2N2CC3(CCN(CC(C)(C)C)CC3)c3c(Cl)ccc(O)c32)n1` [Example 50, 1-(2-(4-Chloro-7-hydroxy-1′-neopentylspiro[indoline-3,4′-piperidine]-1-yl)phenyl)-3-(3-methoxy-1,2,4-thiadiazol-5-yl)urea, TFA], the Ki in experiment [1] turned out to be 6.8 nM. In experiment [2], the IC50 turned out to be 0.3 µM.

For the compound `COC(=O)c1ccc2nc(NC(=O)Nc3ccccc3N3CC4(CCN(CC(C)(C)C)CC4)c4c(Cl)ccc(O)c43)sc2c1` [Example 41, Methyl 2-(3-(2-(4-Chloro-7-hydroxy-1′-neopentylspiro[indoline-3,4′-piperidine]-1-yl)phenyl)ureido)benzo [d]thiazole-6-carboxylate], the inhibitory constant (Ki) in experiment [1] is 7.2 nM. Also, in experiment [2], the IC50 stood at 0.7 µM.

Consider `Cc1ccc2nc(NC(=O)Nc3ccccc3N3CC4(CCN(CC(C)(C)C)CC4)c4c(Cl)c(F)cc(O)c43)sc2c1` [Example 97, 1-(2-(4-Chloro-5-fluoro-7-hydroxy-1′-neopentylspiro [indoline-3,4′-piperidine]-1-yl)phenyl)-3-(6-melhylbenzo [d]thiazol-2-yl)urea], for which, in experiment [1], the Ki stood at 11.5 nM. Besides, the IC50 in experiment [2] came out at 0.7 µM.

Consider `CC(C)(C)CN1CCC2(CC1)CN(c1ccccc1NC(=O)Nc1nc3ccc(F)cc3s1)c1c(O)cc(F)c(-c3ccc(C(F)(F)F)nc3)c12` [Example 161, 1-(2-(5-Fluoro-7-hydroxy-1′-neopentyl-4-(6-(trifluoromethyl)pyridin-3-yl)spiro[indoline-3,4′-piperidin]-1-yl)phenyl)-3-(6-fluorobenzo[d]thiazol-2-yl)urea], for which the Ki in experiment [1] came out at 41.1 nM. The IC50 in experiment [2] is 0.2 µM.

On to `CC(C)c1nsc(NC(=O)Nc2ccccc2N2CC3(CCN(CC(C)(C)C)CC3)c3c(C(F)(F)F)ccc(O)c32)n1` [Example 19, 1-(2-(7-Hydroxy-1′-neopentyl-4-(trifluoromethyl)spiro[indoline-3,4′-piperidine]-1-yl)phenyl)-3-(3-isopropyl-1,2,4-thiadiazol-5-yl)urea], for which, in experiment [1], the Ki worked out at 7.5 nM. Also, the IC50 in experiment [2] was 0.2 µM.

For the compound `CC(C)(C)CN1CCC2(CC1)CN(c1ccccc1NC(=O)Nc1nc3ccc(Cl)cc3s1)c1c(O)ccc(-c3nc4cc(Cl)ccc4s3)c12` [Example 149, 1-(6-Chlorobenzo[d]thiazol-2-yl)-3-(2-(4-(5-chlorobenzo[d]thiazol-2-yl)-7-hydroxy-1′-neopentylspiro[indoline-3,4′-piperidin]-1-yl)phenyl)urea], the Ki in experiment [1] was 26.8 nM. Besides, the IC50 in experiment [2] was 0.9 µM.

`CC(C)(C)CN1CCC2(CC1)CN(c1ccccc1NC(=O)Nc1ccc(C(C)(C)C)cc1)c1c(O)ccc(F)c12` [Example 7, 1-(4-tert-Butylphenyl)-3-(2-(4-fluoro-7-hydroxy-1′-neopentylspiro[indoline-3,4′-piperidine]-1-yl)phenyl)urea]: in experiment [1], the Ki was 4 nM. Further, the IC50 in experiment [2] was found to be 0.6 µM.

For the compound `CC(C)(C)CN1CCC2(CC1)CN(c1ccccc1NC(=O)Nc1nc3ccc(Cl)cc3s1)c1c(O)cc(F)c(-c3ccc(C(F)(F)F)nc3)c12` [Example 162, 1-(6-Chlorobenzo[d]thiazol-2-yl)-3-(2-(5-fluoro-7-hydroxy-1′-neopentyl-4-(6-(trifluoromethyl)pyridin-3-yl)spiro[indoline-3,4′-piperidin]-1-yl)phenyl)urea], the Ki in experiment [1] is 65.5 nM. For the same compound, the IC50 in experiment [2] was 0.5 µM.

For `CC(C)(C)CN1CCC2(CC1)CN(c1ccccc1NC(=O)Nc1nc3ccc(F)cc3s1)c1c(O)ccc(-c3nc4c(Cl)cccc4s3)c12` [Example 116, 1-(2-(4-(4-Chlorobenzo[d]thiazol-2-yl)-7-hydroxy-1′-neopentylspiro[indoline-3,4′-piperidin]-1-yl)phenyl)-3-(6-fluorobenzo[b]thiazol-2-yl)urea], in experiment [1], the Ki came to 36.2 nM. For the same compound, the IC50 in experiment [2] was 0.6 µM.

As for `CC(C)(C)CN1CCC2(CC1)CN(c1ccccc1NC(=O)Nc1nccs1)c1c(O)ccc(C(F)(F)F)c12` [Example 29, 1-(2-(7-Hydroxy-1′-neopentyl-4-(trifluoromethyl)spiro[indoline-3,4′-piperidine]-1-yl)phenyl)-3-(thiazol-2-yl)urea], in experiment [1], the Ki was 6.4 nM. In addition, the IC50 in experiment [2] amounted to 0.4 µM.

Turning to `CC(C)(C)CN1CCC2(CC1)CN(c1ccccc1NC(=O)Nc1ccc(OC(F)(F)F)cc1)c1c(O)cc(F)c(-c3nc4ccc(F)cc4s3)c12` [Example 147, 1-(2-(5-Fluoro-4-(6-fluorobenzo[d]thiazol-2-yl)-7-hydroxy-1′-neopentylspiro[indoline-3,4′-piperidin]-1-yl)phenyl)-3-(4-(trifluoromethoxy)phenyl)urea], the Ki in experiment [1] worked out at 14.8 nM. In experiment [2], the IC50 was 0.5 µM.

In the case of `CC(C)(C)CN1CCC2(CC1)CN(c1ccccc1NC(=O)Nc1nc3c(s1)CCCC3)c1c(O)ccc(Cl)c12` [Example 45, 1-(2-(4-Chloro-7-hydroxy-1′-neopentylspiro[indoline-3,4′-piperidine]-1-yl)phenyl)-3-(4,5,6,7-tetrahydrobenzo[d]thiazol-2-yl)urea, TFA], the inhibition constant (Ki) in experiment [1] was 9.5 nM. Further, the IC50 in experiment [2] stood at 0.3 µM.

For `CC(C)(C)CN1CCC2(CC1)CN(c1ccccc1NC(=O)Nc1nc3ccc(Cl)cc3s1)c1c(O)ccc(Cl)c12` [Example 38, 1-(2-(4-Chloro-7-hydroxy-1′-neopentylspiro[indoline-3,4′-piperidine]-1-yl)phenyl)-3-(6-chlorobenzo[d]thiazol-2-yl)urea], the Ki in experiment [1] was 10 nM. In experiment [2], the IC50 turned out to be 0.4 µM.

`CC(C)(C)CN1CCC2(CC1)CN(c1ccccc1NC(=O)Nc1csc(C(F)(F)F)n1)c1c(O)ccc(Cl)c12` [Example 63, 1-(2-(4-Chloro-7-hydroxy-1′-neopentylspiro[indoline-3,4′-piperidine]-1-yl)phenyl)-3-(2-(trifluoromethyl)thiazol-4-yl)urea]: in experiment [1], the Ki was 4.9 nM. Also, the IC50 in experiment [2] came out at 0.4 µM.

Turning to `CC(C)(C)CN1CCC2(CC1)CN(c1ccccc1NC(=O)Nc1ccc(C(C)(C)C)cc1)c1c(O)ccc(C#N)c12` [Example 82, l-(4-tert-Butylphenyl)-3-(2-(4-cyano-7-hydroxy-1′-neopentylspiro[indoline-3,4′-piperidine]-l-yl)phenyl)urea, trifluoroacetic acid salt], the Ki in experiment [1] turned out to be 24.8 nM. Besides, in experiment [2], the IC50 was 1 µM.

For the compound `CCN(CC)S(=O)(=O)c1ccc(O)c2c1C1(CCN(CC(C)(C)C)CC1)CN2c1ccccc1NC(=O)Nc1ccc(C(C)(C)C)cc1` [Example 90, 1-(2-(3-(4-tert-Butylphenyl)ureido)phenyl)-N,N-diethyl-7-hydroxy-1′-neopentylspiro [indoline-3,4′-piperidine]-4-sulfonamide, trifluoroacetic acid salt], the Ki in experiment [1] turned out to be 3.5 nM. Further, in experiment [2], the IC50 came out at 0.2 µM.

As to `CC(C)(C)CN1CCC2(CC1)CN(c1ccccc1NC(=O)Nc1nc3ccc(Cl)nc3s1)c1c(O)cc(F)c(-c3ccc(F)cc3)c12` [Example 152], in experiment [1], the Ki amounted to 10.2 nM. The IC50 in experiment [2] worked out at 0.2 µM.

Take `COc1ccc2nc(NC(=O)Nc3ccccc3N3CC4(CCN(CC(C)(C)C)CC4)c4c(Cl)ccc(O)c43)sc2c1` [Example 47, 1-(2-(4-Chloro-7-hydroxy-1′-neopentylspiro[indoline-3,4′-piperidine]-1-yl)phenyl)-3-(6-methoxybenzo[d]thiazol-2-yl)urea, TFA]: the Ki in experiment [1] was determined as 9.4 nM. The IC50 in experiment [2] was determined as 0.3 µM.

With `Cc1ccc(NC(=O)Nc2ccccc2N2CC3(CCN(CC(C)(C)C)CC3)c3c(Cl)ccc(O)c32)cc1F` [Example 56, 1-(2-(4-Chloro-7-hydroxy-1′-neopentylspiro[indoline-3,4′-piperidine]-1-yl)phenyl)-3-(3-fluoro-4-methylphenyl)urea], in experiment [1], the Ki is 6.4 nM. Further, the IC50 in experiment [2] was 0.5 µM.

(Values after patent US9428504B2, “7-hydroxy-spiropipiperidine indolinyl antagonists of P2Y1 receptor” (BRISTOL-MYERS SQUIBB COMPANY, priority 2012, dated 2016).)
